Test system: HFL1 cells
Assay: HFL1 cell proliferation inhibition (CCK-8, optical density at 450 nm)
Format: cell-based
Conditions: for IC50: Homo sapiens, 48 hours after dosing, CCK-8, cell proliferation inhibition; for The ratio with PFD: IC50 ratio of Pirfenidone to the compound, 48 hours
Experimental: Example 69: Cell Experiment Method
HFL1 cells in exponential growth phase were cultured, cells were digested and collected using traditional subculturing when reaching 85-95% fusion and the cells were counted to adjust, the cell density to 5×10^4 cells per milliliter, then the cells were seed into 96-well plates, 100 μl/well and incubated in a 5% CO2 incubator at 37° C.
The supernatant of the 96-well plates was removed at 24 hours after the cells adhering to the wall and solutions containing the above compounds with different concentration were added to the wells, with 100 μl/well (the concentration of each compounds are in the range of 0.003-8 mmol/L) each concentration in 3 replicates, and the cells were cultured 48 hours after dosing.
3. Testing the Optical Density
10 μl of CCK-8 solution was added to each well 48 hours after dosing, and incubated for 2 hours. The optical density (A) of each well was determined using a microplate reader at 450 nm wavelength. The cell proliferation inhibition ratio of each compound were calculated based on A using the formula of: cell proliferation inhibition ratio(inhibition ratio, IR)=(1−value of experimental group (Ai)/value of control group (Ao))×100%, in which IC50 of each compound at 48 hours was calculated by data processing software, wherein the control group was the blank group.

SMILES	IC50 [µM]	The ratio with PFD [multiple]
Cc1cc(=O)n(-c2ccc(N3CCC(Cc4cccc5ccccc45)CC3)c(F)c2)c(C)n1 [Example 26, 3-(3-fluoro-4-(4-(naphthalen-1-ylmethyl)piperidin-1-yl)phenyl)-2,6-dimethylpyrimidin-4(3H)-one]	60	137
Cc1cc(=O)n(-c2ccc(N3CCC(Cc4ccc(F)cc4)CC3)c(F)c2)c(C)n1 [Example 25, 3-(3-fluoro-4-(4-(4-fluorobenzyl)piperidin-1-yl)phenyl)-2,6-dimethylpyrimidin-4(3H)-one]	100	107
Cc1cc(=O)n(-c2ccc(N3CCC(Cc4ccc5cc(F)ccc5c4)CC3)c(Cl)c2)c(C)n1 [Example 51, 3-(3-chloro-4-(4-((6-fluoronaphthalen-2-yl)methyl)piperidin-1-yl)phenyl)-2,6-dimethylpyrimidin-4(3H)-one]	37	618
Cc1cc(=O)n(-c2ccc(N3CCC(Oc4ccccc4OC(F)(F)F)CC3)c(Cl)c2)c(C)n1 [Example 35, 3-(3-chloro-4-(4-(2-(trifluoromethoxy)phenoxy)piperidin-1-yl)phenyl)-2,6-dimethylpyrimidin-4(3H)-one]	120	119
Cc1cc(=O)n(-c2ccc(N3CCC(Cc4ccccc4F)CC3)c(Cl)c2)c(C)n1 [Example 6, 3-(3-chloro-4-(4-(2-fluorobenzyl)piperidin-1-yl)phenyl)-2,6-dimethylpyrimidin-4(3H)-one]	70	121
Cc1cc(=O)n(-c2ccc(N3CCC(Cc4cc(F)c(F)c(F)c4)CC3)c(Cl)c2)c(C)n1 [Example 17, 3-(3-chloro-4-(4-(3,4,5-trifluorobenzyl)piperidin-1-yl)phenyl)-2,6-dimethylpyrimidin-4(3H)-one]	70	137
C=CCc1ccccc1OC1CCN(c2ccc(-n3c(C)nc(C)cc3=O)cc2Cl)CC1 [Example 33, 3-(4-(4-(2-allylphenoxy)piperidin-1-yl)-3-chlorophenyl)-2,6-dimethylpyrimidin-4(3H)-one]	70	149
Cc1cc(=O)n(-c2ccc(N3CCC(Cc4cccc(Cl)c4)CC3)c(Cl)c2)c(C)n1 [Example 19, 3-(3-chloro-4-(4-(3-chlorobenzyl)piperidin-1-yl)phenyl)-2,6-dimethylpyrimidin-4(3H)-one]	70	137
Cc1cc(=O)n(-c2ccc(N3CCC(Cc4ccc5ccccc5c4)CC3)c(Cl)c2)c(C)n1 [Example 10, 3-(3-chloro-4-(4-(naphthalen-2-ylmethyl)piperidin-1-yl)phenyl)-2,6-dimethylpyrimidin-4(3H)-one]	78	111
Cc1cc(=O)n(-c2ccc(N3CCC(Cc4ccc(Cl)c(F)c4)CC3)c(Cl)c2)c(C)n1 [Example 16, 3-(3-chloro-4-(4-(4-chloro-3-fluorobenzyl)piperidin-1-yl)phenyl)-2,6-dimethylpyrimidin-4(3H)-one]	70	139
Cc1cc(=O)n(-c2ccc(N3CCC(Cc4ccc(F)c(F)c4)CC3)c(Cl)c2)c(C)n1 [Example 44, 3-(3-chloro-4-(4-(3,4-difluorobenzyl)piperidin-1-yl)phenyl)-2,6-dimethylpyrimidin-4(3H)-one]	70	139
Cc1ccc(OC2CCN(c3ccc(-n4c(C)nc(C)cc4=O)cc3Cl)CC2)c(Cl)c1 [Example 37, 3-(3-chloro-4-(4-(2-chloro-4-methylphenoxy)piperidin-1-yl)phenyl)-2,6-dimethylpyrimidin-4(3H)-one]	80	181
Cc1cc(=O)n(-c2ccc(N3CCC(COc4cccc(C(F)(F)F)c4)CC3)c(Cl)c2)c(C)n1 [Example 53, 3-(3-chloro-4-(4-((3-(trifluoromethyl)phenoxy)methyl)piperidin-1-yl)phenyl)-2,6-dimethylpyrimidin-4(3H)-one]	38	602
Cc1cc(=O)n(-c2ccc(N3CCC(Cc4ccccc4Cl)CC3)c(Cl)c2)c(C)n1 [Example 15, 3-(3-chloro-4-(4-(2-chlorobenzyl)piperidin-1-yl)phenyl)-2,6-dimethylpyrimidin-4(3H)-one]	65	151
Cc1cc(=O)n(-c2ccc(N3CCC(OCc4cccc(F)c4)CC3)c(Cl)c2)c(C)n1 [Example 32, 3-(3-chloro-4-(4-((3-fluorobenzyl)oxy)piperidin-1-yl)phenyl)-2,6-dimethylpyrimidin-4(3H)-one]	100	107
Cc1cc(=O)n(-c2ccc(N3CCC(Oc4cccc(N)c4)CC3)c(Cl)c2)c(C)n1 [Example 34, 3-(4-(4-(3-aminophenoxy)piperidin-1-yl)-3-chlorophenyl)-2,6-dimethylpyrimidin-4(3H)-one]	90	154
Cc1cc(=O)n(-c2ccc(N3CCC(Cc4cc(F)cc5cccnc45)CC3)c(Cl)c2)c(C)n1 [Example 54, 3-(3-chloro-4-(4-((6-fluoroquinolin-8-yl)methyl)piperidin-1-yl)phenyl)-2,6-dimethylpyrimidin-4(3H)-one]	40	209
Cc1cc(=O)n(-c2ccc(N3CCC(Cc4cccc(C(F)(F)F)c4)CC3)c(Cl)c2)c(C)n1 [Example 14, 3-(3-chloro-4-(4-(3-(trifluoromethyl)benzyl)piperidin-1-yl)phenyl)-2,6-dimethylpyrimidin-4(3H)-one]	60	139
Cc1cc(=O)n(-c2ccc(N3CCC(Cc4ccccc4-c4ccccc4)CC3)c(Cl)c2)c(C)n1 [Example 13, 3-(4-(4-([1,1′-biphenyl]-2-ylmethyl)piperidin-1-yl)-3-chlorophenyl)-2,6-dimethylpyrimidin-4(3H)-one]	70	118
Cc1cc(=O)n(-c2ccc(N3CCC(Cc4cc(F)c(F)c5cccnc45)CC3)c(Cl)c2)c(C)n1 [Example 57, 3-(3-chloro-4-(4-((5,6-difluoroquinolin-8-yl)methyl)piperidin-1-yl)phenyl)-2,6-dimethylpyrimidin-4(3H)-one]	60	168
Cc1cc(=O)n(-c2ccc(N3CCC(COc4cccc(F)c4)CC3)c(Cl)c2)c(C)n1 [Example 30, 3-(3-chloro-4-(4-((3-fluorophenoxy)methyl)piperidin-1-yl)phenyl)-2,6-dimethylpyrimidin-4(3H)-one]	60	136
COc1cccc(CC2CCN(c3ccc(-n4c(C)nc(C)cc4=O)cc3Cl)CC2)c1 [Example 12, 3-(3-chloro-4-(4-(3-methoxybenzyl)piperidin-1-yl)phenyl)-2,6-dimethylpyrimidin-4(3H)-one]	80	112
Cc1cc(=O)n(-c2ccc(N3CCC(Cc4ccc(F)c5ccccc45)CC3)c(Cl)c2)c(C)n1 [Example 58, 3-(3-chloro-4-(4-((4-fluoronaphthalen-1-yl)methyl)piperidin-1-yl)phenyl)-2,6-dimethylpyrimidin-4(3H)-one]	64	357
Cc1cc(=O)n(-c2ccc(N3CCC(Oc4cccc(C#N)c4)CC3)c(Cl)c2)c(C)n1 [Example 29, 3-((1-(2-chloro-4-(2,4-dimethyl-6-oxopyrimidin-1 (6H)-yl)phenyl)piperidin-4-yl)oxy)benzonitrile]	90	107
Cc1cc(=O)n(-c2ccc(N3CCC(Cc4ccc(C(F)(F)F)c5cccnc45)CC3)c(Cl)c2)c(C)n1 [Example 56, 3-(3-chloro-4-(4-((5-(trifluoromethyl)quinolin-8-yl)methyl)piperidin-1-yl)phenyl)-2,6-dimethylpyrimidin-4(3H)-one]	40	209
Cc1cc(=O)n(-c2ccc(N3CCC(Cc4cccc5cccnc45)CC3)c(Cl)c2)c(C)n1 [Example 22, 3-(3-chloro-4-(4-(quinolin-8-ylmethyl)piperidin-1-yl)phenyl)-2,6-dimethylpyrimidin-4(3H)-one]	90	101
Cc1cc(=O)n(-c2ccc(N3CCC(Cc4cccc5ccccc45)CC3)c(Cl)c2)c(C)n1 [Example 9, 3-(3-chloro-4-(4-(naphthalen-1-ylmethyl)piperidin-1-yl)phenyl)-2,6-dimethylpyrimidin-4(3H)-one]	80	179
